Experimental data as given in patent publication US10597388B2, “Pyridazinone herbicides” (FMC CORPORATION, priority 2014, dated 2020).

What was measured:
Assay type in all cases: in vivo
[1] = tested on: barley, winter (winter barley, Hordeum vulgare); test: Test D controlled growth environment herbicide test, pre- and postemergence
Text: (§1) Seeds of plant species selected from bluegrass (annual bluegrass, Poa annua), blackgrass (Alopecurus myosuroides), Canada thistle (Cirsium arvense), canarygrass (Phalaris minor), chickweed (common chickweed, Stellaria media), geranium, cutleaf (cutleaf geranium, Geranium dissectum), galium (catchweed bedstraw, Galium aparine), bromegrass, downy (downy bromegrass, Bromus tectorum), field poppy (Papaver rhoeas), field violet (Viola arvensis), foxtail, green (green foxtail, Setaria viridis), deadnettle (henbit deadnettle, Lamium amplexicaule), ryegrass, Italian (Italian ryegrass, Lolium multiflorum), kochia (Kochia scoparia), lambsquarters (Chenopodium album), oilseed rape (Brassica napus), pigweed (Amaranthus retroflexus), chamomile (scentless chamomile, Matricaria inodora), Russian thistle (Salsola kali), speedwell (bird's-eye speedwell, Veronica persica), barley, spring (spring barley, Hordeum vulgare), wheat, spring (spring wheat, Triticum aestivum), buckwheat, wild (wild buckwheat, Polygonum convolvulus), mustard, wild (wild mustard, Sinapis arvensis), oat, wild (wild oat, Avena fatua), radish, wild (wild radish, Raphanus raphanistrum), windgrass (Apera spica-venti), barley, winter (winter barley, Hordeum vulgare), and wheat, winter (winter wheat, Triticum aestivum) were planted into a silt loam soil and treated preemergence with test chemicals formulated in a non-phytotoxic solvent mixture which included a surfactant.
(§2) At the same time, these species were planted in pots containing Redi-Earth® planting medium (Scotts Company, 14111 Scottslawn Road, Marysville, Ohio 43041) comprising spaghnum peat moss, vermiculite, wetting agent and starter nutrients and treated with postemergence applications of the test chemicals formulated in the same manner. Plants ranged in height from 2 to 18 cm (1- to 4-leaf stage). Treated plants and controls were maintained in a controlled growth environment for 14 to 21 d after which time all species were compared to controls and visually evaluated. Plant response ratings, summarized in Table D, are based on a scale of 0 to 100 where 0 is no effect and 100 is complete control. A dash (-) response means no test result.

[2] = tested on: bluegrass (annual bluegrass, Poa annua); test: as above
Text: as §1, §2

[3] = tested on: field violet (Viola arvensis); test: as above
Text: as §1, §2

[4] = tested on: oat, wild (wild oat, Avena fatua); test: as above; details: for Oat, Wild plant response rating / Plant response rating (scale of 0 to 100), Oat, Wild: 31 g ai/ha
Text: as §1, §2

[5] = tested on: pigweed (Amaranthus retroflexus); test: as above; details: for Pigweed plant response rating / Plant response rating (scale of 0 to 100), Pigweed: 31 g ai/ha
Text: as §1, §2

[6] = tested on: radish, wild (wild radish, Raphanus raphanistrum); test: as above; details: for Radish, Wild plant response rating / Plant response rating (scale of 0 to 100), Radish, Wild: 31 g ai/ha
Text: as §1, §2

[7] = tested on: speedwell (bird's-eye speedwell, Veronica persica); test: as above; details: for Speedwell plant response rating / Plant response rating (scale of 0 to 100), Speedwell: 31 g ai/ha
Text: as §1, §2

[8] = tested on: wheat, winter (winter wheat, Triticum aestivum); test: as above; details: for Wheat, Winter plant response rating / Plant response rating (scale of 0 to 100), Wheat, Winter: 31 g ai/ha
Text: as §1, §2

[9] = tested on: windgrass (Apera spica-venti); test: as above; details: for Windgrass plant response rating / Plant response rating (scale of 0 to 100), Windgrass: 31 g ai/ha
Text: as §1, §2

[10] = tested on: waterhemp_RES2 (ALS & HPPD resistant common waterhemp, Amaranthus rudis); test: Test E greenhouse herbicide test, postemergence
Outline: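 Postemergence spray of formulated test chemicals onto resistant waterhemp at 1- to 4-leaf stage (2–18 cm tall), grown in peat/vermiculite potting medium. Kept in greenhouse 14 to 21 d, then visually rated against untreated controls on a 0–100 scale (0 no effect, 100 complete control).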

[11] = Postemergence, 31 g ai/ha, scale 0 to 100 (0 no effect, 100 complete control)
[12] = Postemergence, 125 g ai/ha, visual rating on scale 0 (no effect) to 100 (complete control), 14 to 21 d
[13] = Postemergence, 250 g ai/ha, scale 0 to 100 (0 no effect, 100 complete control)
[14] = Preemergence, 62 g ai/ha, scale 0 to 100 (0 no effect, 100 complete control)
[15] = Preemergence, 125 g ai/ha, scale 0 to 100 (0 no effect, 100 complete control)
[16] = Preemergence, 250 g ai/ha, scale 0 to 100, 0 no effect, 100 complete control
[17] = postemergence, 62 g ai/ha, scale 0 to 100, 0 no effect, 100 complete control
[18] = Postemergence, scale 0 to 100 (0 no effect, 100 complete control)
[19] = 31 g ai/ha, visual, scale 0 no effect to 100 complete control
[20] = 62 g ai/ha, scale 0 to 100 (0 no effect, 100 complete control)
[21] = 125 g ai/ha, scale 0 to 100 (0 no effect, 100 complete control)
[22] = 250 g ai/ha, scale 0 to 100 (0 no effect, 100 complete control)

Cc1cc(C)c2sc(C)c(-c3c(O)c(C)nn(C)c3=O)c2c1 [Compound 2, 5-hydroxy-2,6-dimethyl-4-(2,5,7-trimethylbenzo[b]thien-3-yl)-3(2H)-pyridazinone]
90: Plant response rating, Oat, Wild [4, 12] | Plant response rating, Oat, Wild [4, 14] | Plant response rating, Speedwell [7, 13] | Plant response rating, Speedwell [7, 15]
60: Field Violet plant response rating [3, 11] | Plant response rating, Radish, Wild [6, 13] | Plant response rating (scale of 0 to 100), Windgrass ([9]; Preemergence) | Plant response rating, Waterhemp_RES2 [10, 22]
0: Plant response rating (scale of 0 to 100), Barley, Winter ([1]; Preemergence, 31 g ai/ha) | Plant response rating, Barley, Winter [1, 14] | Plant response rating, Barley, Winter [1, 15] | Barley, Winter plant response rating [1, 16] | Plant response rating (scale of 0 to 100), Bluegrass ([2]; Preemergence, 31 g ai/ha) | Plant response rating (scale of 0 to 100), Radish, Wild ([6]; Preemergence) | Wheat, Winter plant response rating [8, 18] | Plant response rating (scale of 0 to 100), Wheat, Winter ([8]; Preemergence) | Plant response rating, Wheat, Winter [8, 14] | Plant response rating, Wheat, Winter [8, 15] | Plant response rating, Wheat, Winter [8, 17] | Plant response rating, Waterhemp_RES2 ([10]; 16 g ai/ha, visual, scale 0 no effect to 100 complete control) | Plant response rating, Waterhemp_RES2 [10, 19]
100: Plant response rating, Field Violet [3, 14] | Plant response rating, Field Violet [3, 15] | Plant response rating, Field Violet [3, 16] | Plant response rating, Oat, Wild [4, 13] | Plant response rating, Oat, Wild [4, 16] | Plant response rating, Pigweed [5, 16] | Plant response rating, Radish, Wild [6, 16] | Plant response rating, Speedwell [7, 16] | Plant response rating, Windgrass [9, 16]
80: Plant response rating, Field Violet [3, 13] | Plant response rating (scale of 0 to 100), Oat, Wild ([4]; Preemergence) | Plant response rating, Oat, Wild [4, 17] | Plant response rating, Pigweed [5, 17] | Plant response rating, Speedwell [7, 12]
75: Plant response rating, Field Violet [3, 12] | Plant response rating, Windgrass [9, 14]
30: Plant response rating, Bluegrass [2, 15]
85: Plant response rating, Field Violet [3, 17] | Plant response rating, Pigweed [5, 12]
25: Plant response rating (scale of 0 to 100), Pigweed ([5]; Preemergence) | Radish, Wild plant response rating [6, 18] | Plant response rating, Windgrass [9, 17]
95: Plant response rating (scale of 0 to 100), Field Violet ([3]; Preemergence, 31 g ai/ha) | Plant response rating, Oat, Wild [4, 15] | Plant response rating, Pigweed [5, 13] | Plant response rating, Windgrass [9, 15]
15: Plant response rating, Barley, Winter [1, 12] | Plant response rating, Bluegrass [2, 13] | Plant response rating, Bluegrass [2, 14] | Plant response rating, Radish, Wild [6, 15]
10: Plant response rating, Barley, Winter [1, 11] | Plant response rating, Barley, Winter [1, 13] | Plant response rating, Barley, Winter [1, 17] | Plant response rating, Bluegrass [2, 17] | Plant response rating, Wheat, Winter [8, 13] | Windgrass plant response rating [9, 18]
70: Pigweed plant response rating [5, 18] | Plant response rating, Windgrass [9, 13]
55: Oat, Wild plant response rating [4, 18] | Plant response rating, Radish, Wild [6, 17] | Plant response rating (scale of 0 to 100), Speedwell ([7]; Preemergence) | Plant response rating, Windgrass [9, 12]
50: Bluegrass plant response rating [2, 16] | Plant response rating, Pigweed [5, 14] | Speedwell plant response rating [7, 18]
65: Plant response rating, Pigweed [5, 15] | Plant response rating, Radish, Wild [6, 12] | Plant response rating, Speedwell [7, 17]
5: Bluegrass plant response rating [2, 11] | Plant response rating, Bluegrass [2, 12] | Plant response rating, Radish, Wild [6, 14] | Plant response rating, Wheat, Winter [8, 12] | Plant response rating, Wheat, Winter [8, 16] | Plant response rating, Waterhemp_RES2 [10, 20] | Plant response rating, Waterhemp_RES2 [10, 21]

CCc1sc2ccc(C)cc2c1-c1c(O)c(C)nn(C)c1=O [Compound 47]
0: Plant response rating (scale of 0 to 100), Barley, Winter ([1]; Preemergence, 31 g ai/ha) | Plant response rating, Barley, Winter [1, 14] | Plant response rating (scale of 0 to 100), Bluegrass ([2]; Preemergence, 31 g ai/ha)
95: Plant response rating (scale of 0 to 100), Field Violet ([3]; Preemergence, 31 g ai/ha)
75: Pigweed plant response rating [5, 18] | Plant response rating, Pigweed [5, 17] | Plant response rating, Windgrass [9, 16]
25: Plant response rating, Radish, Wild [6, 14] | Plant response rating (scale of 0 to 100), Speedwell ([7]; Preemergence) | Plant response rating, Speedwell [7, 14]
85: Plant response rating, Radish, Wild [6, 16]
15: Plant response rating, Barley, Winter [1, 12] | Plant response rating, Barley, Winter [1, 13] | Plant response rating, Bluegrass [2, 13] | Plant response rating, Oat, Wild [4, 17] | Plant response rating, Windgrass [9, 12] | Plant response rating, Windgrass [9, 13] | Plant response rating, Waterhemp_RES2 [10, 19]
35: Plant response rating, Oat, Wild [4, 15]
40: Plant response rating, Oat, Wild [4, 13] | Plant response rating, Oat, Wild [4, 16] | Plant response rating, Speedwell [7, 12]
70: Plant response rating (scale of 0 to 100), Pigweed ([5]; Preemergence) | Plant response rating, Waterhemp_RES2 [10, 22]
100: Plant response rating, Field Violet [3, 14] | Plant response rating, Field Violet [3, 15] | Plant response rating, Field Violet [3, 16] | Plant response rating, Pigweed [5, 12] | Plant response rating, Pigweed [5, 13] | Plant response rating, Pigweed [5, 14] | Plant response rating, Pigweed [5, 15] | Plant response rating, Pigweed [5, 16] | Plant response rating, Radish, Wild [6, 15] | Plant response rating, Speedwell [7, 16]
50: Plant response rating, Speedwell [7, 13] | Plant response rating, Waterhemp_RES2 [10, 20]
10: Barley, Winter plant response rating [1, 11] | Barley, Winter plant response rating [1, 16] | Plant response rating, Barley, Winter [1, 17] | Plant response rating, Bluegrass [2, 12] | Plant response rating, Bluegrass [2, 17] | Oat, Wild plant response rating [4, 18] | Plant response rating (scale of 0 to 100), Oat, Wild ([4]; Preemergence) | Plant response rating, Radish, Wild [6, 17] | Speedwell plant response rating [7, 18] | Plant response rating, Speedwell [7, 17] | Plant response rating, Wheat, Winter [8, 12] | Plant response rating, Wheat, Winter [8, 15] | Plant response rating, Wheat, Winter [8, 16] | Windgrass plant response rating [9, 18] | Plant response rating, Windgrass [9, 17]
5: Plant response rating, Barley, Winter [1, 15] | Bluegrass plant response rating [2, 11] | Radish, Wild plant response rating [6, 18] | Plant response rating, Radish, Wild [6, 12] | Wheat, Winter plant response rating [8, 18] | Plant response rating, Wheat, Winter [8, 13] | Plant response rating (scale of 0 to 100), Wheat, Winter ([8]; Preemergence) | Plant response rating, Wheat, Winter [8, 14] | Plant response rating, Wheat, Winter [8, 17] | Plant response rating (scale of 0 to 100), Windgrass ([9]; Preemergence) | Plant response rating, Windgrass [9, 14]
80: Plant response rating, Speedwell [7, 15]
60: Plant response rating, Waterhemp_RES2 [10, 21]
20: Plant response rating, Bluegrass [2, 14] | Plant response rating, Bluegrass [2, 15] | Bluegrass plant response rating [2, 16] | Plant response rating, Oat, Wild [4, 12] | Plant response rating, Oat, Wild [4, 14] | Plant response rating, Radish, Wild [6, 13] | Plant response rating (scale of 0 to 100), Radish, Wild ([6]; Preemergence) | Plant response rating, Windgrass [9, 15]
